Laboratory results taken from patent publication US6737383B1, “Herbicidal oxadiazolidines” (priority 1999, dated 2004).

Legend:
bedstraw = experiment: Test B pre/postemergence bedstraw; type: in vivo, Galium aparine
Outline: (§1)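 Test chemicals in a non-phytotoxic solvent mixture with surfactant were sprayed preemergence onto planted seeds and postemergence onto plants 2 to 18 cm tall (1- to 4-leaf stage). After twelve to sixteen days in a greenhouse, injury was visually rated against untreated controls from 0 (no effect) to 10 (complete control).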

blackgrass = experiment: Test B pre/postemergence blackgrass; type: in vivo, Alopecurus myosuroides
Outline: as §1

surinam grass = experiment: Test B pre/postemergence surinam grass; type: in vivo, Brachiaria decumbens
Outline: as §1

cocklebur = experiment: Test B pre/postemergence cocklebur; type: in vivo, Xanthium strumarium
Outline: as §1

corn = experiment: Test B pre/postemergence corn; type: in vivo, Zea mays
Outline: as §1

crabgrass = experiment: Test B pre/postemergence crabgrass; type: in vivo, Digitaria sanguinalis
Outline: as §1

pigweed = experiment: Test B pre/postemergence pigweed; type: in vivo, Amaranthus retroflexus
Outline: as §1

rape = experiment: Test B pre/postemergence rape; type: in vivo, Brassica napus
Outline: as §1

soybean = experiment: Test B pre/postemergence soybean; type: in vivo, Glycine max
Outline: as §1

sugar beet = experiment: Test B pre/postemergence sugar beet; type: in vivo, Beta vulgaris
Outline: as §1

velvetleaf = experiment: Test B pre/postemergence velvetleaf; type: in vivo, Abutilon theophrasti
Outline: as §1

wheat = experiment: Test B pre/postemergence wheat; type: in vivo, Triticum aestivum
Outline: as §1

wild oat = experiment: Test B pre/postemergence wild oat; type: in vivo, Avena fatua
Outline: as §1

purple nutsedge = experiment: Test B pre/postemergence purple nutsedge; type: in vivo, Cyperus rotundus
Outline: as §1

smallflower flatsedge = experiment: Test B flood test smallflower flatsedge; type: in vivo, Cyperus difformis
Outline: (§2)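 Each value is a visual injury score relative to controls, with 10 meaning complete control and 0 no effect. Evaluation took place twelve to sixteen days after the 2-leaf-stage plants were treated and kept in the greenhouse.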

bamyardgrass = experiment: Test B flood test barnyardgrass; type: in vivo, Echinochloa crus-galli
Outline: as §2

[1] = Preemergence, Rate 250 g/ha, scale of 0 to 10 where 0 is no effect and 10 is complete control
[2] = Preemergence, Rate 500 g/ha, scale of 0 to 10 where 0 is no effect and 10 is complete control
[3] = Rate 62 g/ha, Postemergence, scale of 0 to 10 where 0 is no effect and 10 is complete control
[4] = Rate 125 g/ha, Postemergence, scale 0 to 10
[5] = Rate 125 g/ha, Preemergence, scale of 0 to 10 where 0 is no effect and 10 is complete control
[6] = Rate 500 g/ha, Postemergence, scale 0 to 10, 0 no effect, 10 complete control
[7] = Preemergence, Rate 62 g/ha, scale of 0 to 10 where 0 is no effect and 10 is complete control
[8] = Rate 62 g/ha, headed Pre-emergence (flood test species), scale 0 to 10 (0 no effect, 10 complete control)
[9] = Rate 125 g/ha, Pre-emergence, flood test species, scale 0 to 10 where 0 is no effect and 10 is complete control
[10] = Rate 250 g/ha, Pre-emergence, flood-test species, scale 0 to 10, 0 is no effect, 10 is complete control
[11] = Rate 500 g/ha, Pre-emergence, flood test species, scale 0 to 10 (0 no effect, 10 complete control)

With `CC(C)N(C(=O)n1oc(=O)n(C2CC2)c1=O)c1ccc(Cl)cc1` [Compound 241] the “Bedstraw plant response rating” value (bedstraw; [1]) was 7, the “Plant response rating, Bedstraw” value (bedstraw; [2]) was 10 and the “Bedstraw plant response rating” value (bedstraw; [3]) was 0. For the same molecule, the “Bedstraw plant response rating” value (bedstraw; [4]) was 3, the “Bedstraw plant response rating” value (bedstraw; [5]) was 0 and the “Plant response rating (0 to 10; 0 is no effect, 10 is complete control), Bedstraw” value (bedstraw; Rate 250 g/ha, Postemergence) was 7. For the same molecule, the “Bedstraw plant response rating” value (bedstraw; [6]) was 7, the “Blackgrass plant response rating” value (blackgrass; [7]) was 6 and the “Blackgrass plant response rating” value (blackgrass; [1]) was 7. The “Plant response rating, Blackgrass” value (blackgrass; [2]) was 10, the “Blackgrass plant response rating” value (blackgrass; [3]) was 3 and the “Blackgrass plant response rating” value (blackgrass; [4]) was 7. The “Blackgrass plant response rating” value (blackgrass; [5]) was 6, the “Plant response rating (0 to 10; 0 is no effect, 10 is complete control), Blackgrass” value (blackgrass; Rate 250 g/ha, Postemergence) was 8 and the “Blackgrass plant response rating” value (blackgrass; [6]) was 9. For the same molecule, the “B. signalgrass plant response rating” value (surinam grass; [7]) was 0, the “B. signalgrass plant response rating” value (surinam grass; [1]) was 4 and the “Plant response rating, B. signalgrass” value (surinam grass; [2]) was 4. For the same molecule, the “B. signalgrass plant response rating” value (surinam grass; [3]) was 0, the “B. signalgrass plant response rating” value (surinam grass; Rate 125 g/ha, Postemergence, scale 0 (no effect) to 10 (complete control)) was 2 and the “B. signalgrass plant response rating” value (surinam grass; [5]) was 2. For the same molecule, the “Plant response rating (0 to 10; 0 is no effect, 10 is complete control), B. signalgrass” value (surinam grass; Rate 250 g/ha, Postemergence) was 4, the “B. signalgrass plant response rating” value (surinam grass; [6]) was 6 and the “Cocklebur plant response rating” value (cocklebur; [7]) was 0. The “Cocklebur plant response rating” value (cocklebur; [1]) was 0, the “Plant response rating, Cocklebur” value (cocklebur; [2]) was 0 and the “Cocklebur plant response rating” value (cocklebur; [3]) was 0. The “Cocklebur plant response rating” value (cocklebur; [4]) was 0, the “Cocklebur plant response rating” value (cocklebur; [5]) was 0 and the “Plant response rating (0 to 10; 0 is no effect, 10 is complete control), Cocklebur” value (cocklebur; Rate 250 g/ha, Postemergence) was 1. For the same molecule, the “Cocklebur plant response rating” value (cocklebur; [6]) was 1, the “Corn plant response rating” value (corn; [7]) was 0 and the “Corn plant response rating” value (corn; [1]) was 0. The “Plant response rating, Corn” value (corn; [2]) was 5, the “Corn plant response rating” value (corn; [3]) was 0 and the “Corn plant response rating” value (corn; [4]) was 0. The “Corn plant response rating” value (corn; [5]) was 0, the “Plant response rating (0 to 10; 0 is no effect, 10 is complete control), Corn” value (corn; Rate 250 g/ha, Postemergence) was 0 and the “Corn plant response rating” value (corn; [6]) was 0. For the same molecule, the “Crabgrass plant response rating” value (crabgrass; [7]) was 3, the “Crabgrass plant response rating” value (crabgrass; [1]) was 10 and the “Plant response rating, Crabgrass” value (crabgrass; [2]) was 10. For the same molecule, the “Crabgrass plant response rating” value (crabgrass; [3]) was 2, the “Crabgrass plant response rating” value (crabgrass; [5]) was 7 and the “Plant response rating (0 to 10; 0 is no effect, 10 is complete control), Crabgrass” value (crabgrass; Rate 250 g/ha, Postemergence) was 8. The “Crabgrass plant response rating” value (crabgrass; [6]) was 9, the “Redroot pigweed plant response rating” value (pigweed; [7]) was 0 and the “Redroot pigweed plant response rating” value (pigweed; [1]) was 9. For the same molecule, the “Plant response rating, Redroot pigweed” value (pigweed; [2]) was 10, the “Redroot pigweed plant response rating” value (pigweed; [3]) was 0 and the “Redroot pigweed plant response rating” value (pigweed; [5]) was 0. The “Plant response rating (0 to 10; 0 is no effect, 10 is complete control), Redroot pigweed” value (pigweed; Rate 250 g/ha, Postemergence) was 0, the “Redroot pigweed plant response rating” value (pigweed; [6]) was 7 and the “Rape plant response rating” value (rape; [7]) was 0. The “Rape plant response rating” value (rape; [1]) was 5, the “Plant response rating, Rape” value (rape; [2]) was 9 and the “Rape plant response rating” value (rape; [3]) was 0. For the same molecule, the “Rape plant response rating” value (rape; [5]) was 0, the “Plant response rating (0 to 10; 0 is no effect, 10 is complete control), Rape” value (rape; Rate 250 g/ha, Postemergence) was 2 and the “Rape plant response rating” value (rape; [6]) was 4. The “Soybean plant response rating” value (soybean; [7]) was 0, the “Soybean plant response rating” value (soybean; [1]) was 0 and the “Plant response rating, Soybean” value (soybean; [2]) was 4. The “Soybean plant response rating” value (soybean; [3]) was 1, the “Soybean plant response rating” value (soybean; [5]) was 0 and the “Soybean plant response rating” value (soybean; [6]) was 4. The “Sugarbeets plant response rating” value (sugar beet; [7]) was 0, the “Sugarbeets plant response rating” value (sugar beet; [1]) was 6 and the “Plant response rating, Sugarbeets” value (sugar beet; [2]) was 6. The “Sugarbeets plant response rating” value (sugar beet; [3]) was 0, the “Sugarbeets plant response rating” value (sugar beet; [5]) was 0 and the “Sugarbeets plant response rating” value (sugar beet; [6]) was 5. The “Velvetleaf plant response rating” value (velvetleaf; [7]) was 2, the “Velvetleaf plant response rating” value (velvetleaf; [1]) was 5 and the “Plant response rating, Velvetleaf” value (velvetleaf; [2]) was 7. The “Velvetleaf plant response rating” value (velvetleaf; [3]) was 2, the “Velvetleaf plant response rating” value (velvetleaf; [5]) was 5 and the “Velvetleaf plant response rating” value (velvetleaf; [6]) was 1. The “Wheat plant response rating” value (wheat; [7]) was 0, the “Wheat plant response rating” value (wheat; [1]) was 3 and the “Plant response rating, Wheat” value (wheat; [2]) was 5. For the same molecule, the “Wheat plant response rating” value (wheat; [3]) was 0, the “Wheat plant response rating” value (wheat; [5]) was 0 and the “Wheat plant response rating” value (wheat; [6]) was 8. The “Wild oats plant response rating” value (wild oat; [7]) was 3, the “Wild oats plant response rating” value (wild oat; [1]) was 8 and the “Plant response rating, Wild oats” value (wild oat; [2]) was 8. The “Wild oats plant response rating” value (wild oat; [3]) was 0, the “Wild oats plant response rating” value (wild oat; [5]) was 5 and the “Wild oats plant response rating” value (wild oat; [6]) was 2. The “Nutsedge plant response rating” value (purple nutsedge; [1]) was 10, the “Plant response rating, Nutsedge” value (purple nutsedge; [2]) was 10 and the “Nutsedge plant response rating” value (purple nutsedge; [3]) was 0. For the same molecule, the “Nutsedge plant response rating” value (purple nutsedge; [5]) was 0, the “Plant response rating (0 to 10; 0 is no effect, 10 is complete control), Nutsedge” value (purple nutsedge; Rate 250 g/ha, Postemergence) was 0 and the “Nutsedge plant response rating” value (purple nutsedge; [6]) was 6. For the same molecule, the “S. Flatsedge plant response rating” value (smallflower flatsedge; [8]) was 0, the “S. Flatsedge plant response rating” value (smallflower flatsedge; [9]) was 0 and the “S. Flatsedge plant response rating” value (smallflower flatsedge; [10]) was 0. For the same molecule, the “S. Flatsedge plant response rating” value (smallflower flatsedge; [11]) was 0, the “Barnyardgrass plant response rating” value (bamyardgrass; [8]) was 0 and the “Barnyardgrass plant response rating” value (bamyardgrass; [9]) was 0. For the same molecule, the “Barnyardgrass plant response rating” value (bamyardgrass; [10]) was 0 and the “Barnyardgrass plant response rating” value (bamyardgrass; [11]) was 0.
